This test addresses T1, human α2C (Homo sapiens, UniProt P18825).
T1 construct: expressed in transfected cells; host or cells: CHO (CHO-C4)
T1 sequence (P18825 1-462): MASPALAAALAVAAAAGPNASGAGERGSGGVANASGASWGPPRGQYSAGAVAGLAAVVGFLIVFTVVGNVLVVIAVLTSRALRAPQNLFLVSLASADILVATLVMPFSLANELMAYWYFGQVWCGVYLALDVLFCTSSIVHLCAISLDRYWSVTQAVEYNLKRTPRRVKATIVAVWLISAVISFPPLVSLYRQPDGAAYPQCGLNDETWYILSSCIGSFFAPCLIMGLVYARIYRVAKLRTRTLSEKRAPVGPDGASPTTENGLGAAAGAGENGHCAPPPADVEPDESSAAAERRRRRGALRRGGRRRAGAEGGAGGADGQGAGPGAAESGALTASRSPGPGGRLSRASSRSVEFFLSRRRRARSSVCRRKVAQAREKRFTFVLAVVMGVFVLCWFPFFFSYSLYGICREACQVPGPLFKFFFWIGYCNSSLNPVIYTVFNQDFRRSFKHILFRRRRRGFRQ
As to the kind of experiment: Receptor binding assay, [3H]rauwolscine, CHO-C4 cell membranes. Particulars: 22°C, 30 minutes. As to the method:
Cell preparation: Chinese hamster ovary (CHO) cells expressing the human α2A and human α2C (CHO-C10 and CHO-C4 respectively) receptors and CHO cells (CHO-RNG) expressing the rat α2B adrenoceptor were grown to near confluence in Dulbecco's modified Eagle's medium supplemented with 10% fetal bovine serum using standard cell culture methods. Cells were harvested by scraping and placed into cold buffer of the following composition: 50 mM Tris-HCl, 5 mM EDTA, pH 7.4). Cells were then homogenized with a Polytron homogenizer for 2 X 10 sec at setting #7, and centrifuged for 20 minutes at 49,000 x g. The pellet fraction was washed (resuspended in Tris-HCl, pH 8 buffer and centrifuged for 15-20 minutes at 49,000 x g) 2 times and stored at -100°C until binding assay.
Binding Studies: The radioligands [^3H]rauwolscine (specific activity 80 Ci/mmol) and [^3H]prazosin (specific activity 76 Ci/mmol) were obtained from New England Nuclear, Boston, MA. Frozen membrane pellet was resuspended in 25 mM glycine/glycine, pH 7.5 and incubated with radioligand under the following conditions: CHO-C10, CHO-RNG, CHO-C4-[^3H]rauwolscine, 22°C, 30 minutes; RKC-[^3H]rauwolscine, 0°C, 120 minutes; and, HCC-[^3H]prazosin, 22°C, 30 minutes in a final volume of 500 ul. At the end of the incubation period, the samples were filtered through glass filters (Whatman GF/B) in a 96 well cell harvester and rapidly washed four times with 4 mL of iced-cold 50 mM Tris-HCl buffer. The filters were then oven dried and transferred to scintillation vials containing 10 mL of Beckman's Ready Protein® scintillation cocktail for counting. Specific binding defined by 10 uM phentolamine for competition studies were as follows: 2.4 nM [^3H]brimonidine-RbICB 62%; 2.4 nM [^3H]rauwolscine-RbICB 75%; 2 nM [^3H]rauwolscine-RbKc 88%; 0.3 nM [^3H] rauwolscine-CHO-C10 99%; 0.4 nM [^3H]rauwolscine-CHO-RNG 99%, 0.3 nM [^3H]prazosin 87%; and 1 nM [^3H]rauwolscine-CHO-C4 90%. Protein concentrations were determined with a protein assay kit from Bio Rad. Binding isotherms, equilibrium dissociation and affinity constants were analyzed and determined by the non-linear least squares curve fitting programs EBDA (BioSoft) or AccuFit Competition/Saturation by Beckman.
The radioligands [^3H)rauwolscine (specific activity 80 Ci/mmol) and [^3H]prazosin (specific activity 76 Ci/mmol) were obtained from New England Nuclear, Boston, MA. Frozen membrane pellet was resuspended in 25 mM glycine/glycine, pH 7.4 and incubated with radioligand under the following conditions: CHO-C10, CHO-RNG, CHO-C4-[^3H]rauwolscine, 22°C, 30 min.; and, HCC-[^3H]prazosin, 22°C, 30 minutes in a final volume of 500 ul. At the end of the incubation period, the samples were filtered through glass fiber filters (Whatman GF/B) in a 96 well cell harvester and rapidly washed four times with 4 mL of iced-cold 50 mM Tris-CHl buffer. The filters were then oven dried and transferred to scintillation vials containing 5 mL of Beckman's Ready Protein® scintillation cocktail for counting. Specific binding defined by 10 uM phentolamine for competition studies were as follows: 0.3 nM[^3H] rauwolscine-CHO-C10 99%; 0.4 nM [^3H]rauwolscine-CHO-RNG 99%, and 0.3 nM [^3H] prazosin-HCC 87%. Protein concentrations were determined with a protein assay kit from Bio Rad. Binding isotherms, equilibrium dissociation and affinity constants were analyzed and determined by the non-linear least squares curve fitting programs AccuFit Competition/Saturation by Beckman.

One may read the Ki as the equilibrium dissociation constant of an inhibitor or competing ligand from its target. Low values mean higher affinity, high ones lower affinity.

`c1ccc(Nc2ncc[nH]2)cc1` had a Ki of 3240 nM.

Compound `Clc1ccccc1Nc1ncc[nH]1` returned a Ki of 2250 nM.

For the compound `Brc1ccccc1Nc1ncc[nH]1`, the Ki came out at 2390 nM. This Ki and that of the compound before are within 1.5-fold of each other.

`Clc1cccc(Cl)c1Nc1ncc[nH]1` registered a Ki of 1120 nM.

As to `Cc1ccccc1Nc1ncc[nH]1`, the affinity corresponds to a Ki of 577 nM.

`Brc1c(Nc2ncc[nH]2)ccc2nccnc12` yielded a Ki of 9670 nM.

As for `Cc1c(Nc2ncc[nH]2)ccc2c1OCCO2`, the Ki amounted to 19 nM.

The compound `c1cc2c(c(Nc3ncc[nH]3)c1)CCCC2` registered a Ki of 252 nM.

As to `Cc1c(Nc2ncc[nH]2)ccc2c1NCCO2`, the Ki is 229 nM.

Take `COc1ccc(Nc2ncc[nH]2)c(C)c1`: the affinity, expressed as Ki, was 512 nM.

The values above are taken from patent EP0741709B1, “AROMATIC 2-AMINO-IMIDAZOLE DERIVATIVES AS ALPHA-2A ADRENOCEPTOR AGONISTS” (Allergan Sales, Inc., priority 1994, dated 1995).
